The target of assay [1] is T1, p38α (Homo sapiens, UniProt Q16539). Put plainly: ADP-Glo Kinase Assay, p38α MAP kinase inhibition. The class given is biochemical. As to conditions: read-out: p38α MAP kinase inhibitory activity IC50. On the procedure: The capacity of brominated tyrosine derivatives to inhibit p38α activity was evaluated using the ADP-Glo Kinase Assay.
(In general: In ADP-Glo the light output rises with the ADP produced.)

In assay [2] the test system is PC9 cells. Put plainly: MTT anti-proliferation assay, PC9 cells. The class given is cell-based, human. Particulars: for MTT, PC9, value relative to control (=100), single replicate: 24 h. On the procedure: (§1) To evaluate the tumor-selective activity of compounds 4l and 4m, dose–response studies were performed on wild-type PC9 and gefitinib-resistant PC9/GR cell lines. […] Subtoxic concentrations of 25, 50, and 75 μM were employed to ensure specificity for drug-resistant phenotypes while preserving normal cell viability. […] To assess long-term proliferative potential, clonogenic survival assays were performed. Cells pretreated with 4l (24 h) were trypsinized to generate single-cell suspensions, plated at 300 cells/well, and cultured for 14 days. […] Cell migration ability was evaluated by the scratch healing assay. […] To evaluate the pro-apoptotic efficacy of 4l, we employed a dual-staining approach using Annexin V-FITC and propidium iodide (PI) for quadrant-specific quantification of programmed cell death. Annexin V binds externalized phosphatidylserine (PS), a hallmark of early apoptosis, while PI permeabilization discriminates late-stage apoptotic or necrotic cells.
(§2) The human normal lung epithelial cell line BEAS-2B, non-small cell lung carcinoma (NSCLC) cell line PC9, and gefitinib-resistant PC9/GR cell line were purchased from Procell Life Science & Technology Co., Ltd. (Wuhan, China). All cell lines were maintained in RPMI-1640 medium (BI, Beit Haemek, Mateh Asher, Israel) supplemented with 10% fetal bovine serum (FBS, Gibco, Thermo Fisher Scientific, Waltham, MA, USA) and 1% penicillin–streptomycin–amphotericin B sterile solution (Solarbio, Beijing, China). Cells were cultured at 37 °C in a humidified incubator with 5% CO2. For subculturing, cells were harvested using trypsin-EDTA solution upon reaching 70–80% confluence and resuspended at appropriate densities for subsequent experiments.
(§3) MTT: Cells (5 × 10^4/mL) were treated with 4l (25–100 μM, 24–48 h), incubated with MTT (10 μL/well, 4–6 h), and dissolved in DMSO. Absorbance (490 nm) was measured to assess viability.

In assay [3] the test system is PC9/GR cells. Kind of assay: MTT anti-proliferation assay, gefitinib-resistant PC9/GR cells. The assay is classed as cell-based, human. Particulars: for MTT, PC9/GR, value relative to control (=100), single replicate: 24 h. On the procedure:
as §1, §2, §3

Assay [4] concerns the target T1, p38α. On the set-up: method as in PMID 30642059. As to conditions: compounds 6a–6o synthesized in previous work; read-out: p38α MAP kinase inhibitory activity IC50; cited from earlier work.

Values joined by “and” are separate entries in the source; they are usually repeats but may differ in a detail not shown here. Equal entries are not always repeated. Where two headings read alike, the source gives them in different places.

As usually defined, the IC50 is the concentration at which inhibition is half-maximal.

T1 sequence (Q16539 whole entry): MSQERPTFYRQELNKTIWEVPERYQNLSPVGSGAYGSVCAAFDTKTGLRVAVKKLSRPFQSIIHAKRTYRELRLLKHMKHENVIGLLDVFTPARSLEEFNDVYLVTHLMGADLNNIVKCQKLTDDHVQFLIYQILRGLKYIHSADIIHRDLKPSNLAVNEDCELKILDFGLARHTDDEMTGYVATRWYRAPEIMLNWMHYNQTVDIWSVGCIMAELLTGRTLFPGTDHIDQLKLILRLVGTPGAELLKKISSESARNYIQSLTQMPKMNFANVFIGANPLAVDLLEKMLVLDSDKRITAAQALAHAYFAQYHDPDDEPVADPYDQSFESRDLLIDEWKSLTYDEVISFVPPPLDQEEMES

For `COc1ccc(NC(=O)NCCc2cc(Br)c(O)c(Br)c2)cc1` [4a, 1-(3,5-dibromo-4-hydroxyphenethyl)-3-(4-methoxyphenyl)urea], in assay [1], the IC50 was determined as 265 ± 20.7 nM. In the case of `CCOc1ccc(NC(=O)NCCc2cc(Br)c(O)c(Br)c2)cc1` [4b, 1-(3,5-dibromo-4-hydroxyphenethyl)-3-(4-ethoxyphenyl)urea], the IC50 in assay [1] amounted to 170 ± 12.1 nM. The same measure, in the same setting: the result for `CCCOc1ccc(NC(=O)NCCc2cc(Br)c(O)c(Br)c2)cc1` [4c, 1-(3,5-dibromo-4-hydroxyphenethyl)-3-(4-propoxyphenyl)urea] reads 297 ± 17.5 nM. On the same count and under the same terms, the result for `CCCCOc1ccc(NC(=O)NCCc2cc(Br)c(O)c(Br)c2)cc1` [4d, 1-(4-butoxyphenyl)-3-(3,5-dibromo-4-hydroxyphenethyl)urea] reads 914 ± 44.3 nM; that for `O=C(NCCc1cc(Br)c(O)c(Br)c1)Nc1ccc(OCCCN2CCOCC2)cc1` [4g, 1-(3,5-dibromo-4-hydroxyphenethyl)-3-(4-(3-morpholinopropoxy)phenyl)urea], 167 ± 13.6 nM. Same read-out and setting: then `CC(C)Oc1ccc(NC(=O)NCCc2cc(Br)c(O)c(Br)c2)cc1` [4h, 1-(3,5-dibromo-4-hydroxyphenethyl)-3-(4-isopropoxyphenyl)urea], with 850 ± 32.7 nM; and `O=C(NCCc1cc(Br)c(O)c(Br)c1)Nc1cccc(Cl)c1` [4i, 1-(3-chlorophenyl)-3-(3,5-dibromo-4-hydroxyphenethyl)urea], with 13.9 ± 2.7 nM; and `O=C(NCCc1cc(Br)c(O)c(Br)c1)Nc1ccccc1Cl` [4j, 1-(2-chlorophenyl)-3-(3,5-dibromo-4-hydroxyphenethyl)urea], with 74.4 ± 13 nM. Regarding `O=C(NCCc1cc(Br)c(O)c(Br)c1)Nc1ccc(Br)cc1` [4k, 1-(4-bromophenyl)-3-(3,5-dibromo-4-hydroxyphenethyl)urea], the IC50 in assay [1] worked out at 51.1 ± 9.5 nM.

Turning to `O=C(NCCc1cc(Br)c(O)c(Br)c1)Nc1ccccc1F` [4m, 1-(3,5-dibromo-4-hydroxyphenethyl)-3-(2-fluorophenyl)urea], the IC50 in assay [1] was determined as 10.2 ± 2.3 nM; in assay [2] (Homo sapiens, PC-9, wild-type PC9, MTT, 24-hour treatment, 0–100 μM, read-out: IC50, growth inhibition) it was 55500 nM; in assay [3] (Homo sapiens, gefitinib-resistant PC9/GR, MTT, 24-hour treatment, 0–100 μM, read-out: IC50, growth inhibition), 39000 nM. Further, the “MTT, PC9, value relative to control (=100), single replicate” value was 72.71 and 78.44 and 89.41 and 73.662 in assay [2] (25 (μM)); 73.32 and 75.35 and 64.23 and 80.16 in assay [2] (50 (μM)); 63.32 and 73.36 and 69.44 and 65.21 in assay [2] (75 (μM)); 61.89 and 69.88 and 70.31 and 63.67 in assay [2] (100 (μM)). The “MTT, PC9/GR, value relative to control (=100), single replicate” value in assay [3] (25 (μM)) was 62.45 and 66.61 and 79.63 and 68.61; in assay [3] (50 (μM)), 61.78 and 67.43 and 60.72 and 69.73; in assay [3] (75 (μM)), 48.89 and 53.34 and 39.63 and 40.04; in assay [3] (100 (μM)) it was 37.64 and 39.62 and 40.69 and 41.33. In addition, the “selectivity towards cells with the drug-resistant phenotype” value in assay [3] (PC9/GR versus PC9) is on record as “did not demonstrate significant selectivity”. On to `Cc1ccc(NC(=O)NCCc2cc(Br)c(O)c(Br)c2)cc1` [4n, 1-(3,5-dibromo-4-hydroxyphenethyl)-3-(p-tolyl)urea], for which the IC50 in assay [1] came to 38.7 ± 8.1 nM. Same read-out and setting: then `COCCOc1ccc(NC(=O)NCCc2cc(Br)c(O)c(Br)c2)cc1` [4o, 1-(3,5-dibromo-4-hydroxyphenethyl)-3-(4-(2-methoxyethoxy)phenyl)urea], with 11.3 ± 26.2 nM. For the compound `COc1c(Br)cc(CCNC(=O)Nc2ccc(OCCCN3CCOCC3)cc2)cc1Br` [6g], the IC50 in assay [4] was 11.7 ± 3 nM.

Source of the values: publication PMC12471852, “Design and Synthesis of Marine-Inspired Itampolin A Derivatives to Overcome Chemoresistance in NSCLC via Cholesterol Homeostasis Modulation” (Marine Drugs, 2025).
